Here are results for one molecule from paper PMC9486186 (Bioactive Materials, 2022).

The test has as its system BCR-ABL(T315I) induced CML mice. In words: Survival of BCR-ABL. The format is in vivo, mouse. The note with it: BPTES 10 mg/kg monotherapy.

Turning to `O=C(Cc1ccccc1)Nc1nnc(CCSCCc2nnc(NC(=O)Cc3ccccc3)s2)s1` [BPTES], the “mice still alive on day 60 post BMT” value is 3/9.
